Laboratory results as given in patent publication US9642835B2, “Modulators of GTPase and use in relevant treatment” (STC.UNM, priority 2010, dated 2017).

Columns and labels:
[1] = target: Cdc42 (Homo sapiens, UniProt P60953); assay: Fluorescent-GTP binding to Cdc42 (p38 inhibitor control)
[2] = target: T1, Cdc42 GTPase in Swiss 3T3 cells (Mus musculus, UniProt P60766); assay: GLISA; format: cell-based; settings: approximately 10 μM
T1 construct: endogenous in cells; host or cells: Swiss 3T3 cells
T1 sequence (P60766 whole entry): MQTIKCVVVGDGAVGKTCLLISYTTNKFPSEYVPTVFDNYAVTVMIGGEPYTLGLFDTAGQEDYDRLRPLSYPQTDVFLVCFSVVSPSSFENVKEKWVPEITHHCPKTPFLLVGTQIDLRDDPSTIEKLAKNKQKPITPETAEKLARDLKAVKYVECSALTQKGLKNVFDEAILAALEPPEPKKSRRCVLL
Procedure: Swiss 3T3 cells were continuously passaged at subconfluence and used to monitor the capacity of compounds to block stimulus-mediated activation of Cdc42, Rac1 or RhoA in vivo. Commercial GLISA kits customized to capture activated Cdc42, Rac1 or Rho from cell lysates were used per manufacturer's instructions (Cytoskeleton, Inc.). Cells were serum starved by sequentially removing serum over a three day period and treated with DMSO or 10 μM compound in DMSO for 20-30 min. Subsequently samples were treated with EGF (10 ng/ml for Rac1 and 100 ng/ml for Cdc42) for 2 min to activate Rac1 and Cdc42 or 5 U/ml calpeptin for 10 min to activate RhoA. DMSO treated cells were left unstimulated to determine baseline GTPase activation or stimulated without drug treatment to determine maximal GTPase activation. Cell lysates were snap frozen, active Cdc42 and Rac1 were quantified based on a PAK binding assay, active RhoA was quantified based on Rho GTP-binding protein interaction. All assays were performed in 96-well microtiter plates, Purified GTP-bound Cdc42, Rac1, or RhoA served as a standards to calculate ng active GTPase in the lysates.

[3] = target: Cdc42 ACT (Cdc42Q61L) (Homo sapiens, UniProt P60953, Q61L); assay: Bead-based flow cytometry dose response, BODIPY-FL-GTP binding; settings: Table 6, R3 analogs; read-out: Cdc42 ACT EC50
Sequence of Cdc42 ACT (Cdc42Q61L) (P60953 whole entry Q61L): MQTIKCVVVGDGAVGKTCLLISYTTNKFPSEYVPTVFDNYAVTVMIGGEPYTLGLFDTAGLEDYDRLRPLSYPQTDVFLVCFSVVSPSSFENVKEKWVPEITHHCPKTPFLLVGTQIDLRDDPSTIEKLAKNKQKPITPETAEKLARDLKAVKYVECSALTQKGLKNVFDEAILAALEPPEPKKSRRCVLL
Procedure: (§1) Bead sets for multiplex assays were custom synthesized by Duke Scientific Corp (Fremont, Calif.), but may now be ordered from Thermo/Fisher. […] Negative controls, contained the bead mixture with fluorescent GTP, 0.5 mM unlabeled GTP as a competitor, and 1% DMSO. […] The resulting time-dependent data (one file per plate) were analyzed using IDLQuery software to determine the compound activity in each well. Gating based on forward scatter (FS) and side scatter (SS) parameters was used to identify singlet bead populations. Gating based on FL8 emission distinguishes the beads coated with different proteins, and the median fluorescence per bead population was calculated. […] Baselines were set to 100% based on measurements from the 1% DMSO containing positive controls as further described in PubChem. {PubChem #72}
(§2) Briefly, compounds were serially diluted 1:3 a total of eight times from a starting concentration of 10 mM giving a 9-point dilution series in DMSO. The final concentrations of inhibitors in the assay ranged from 10 nM to 100 μM. Dose-response analyses were examined in the presence of NP-HPS buffer containing: a) 1 mM EDTA; or b) 1 mM MgCl2. […] For assays with EDTA we used one multiplex (Rab7 wt, Rab2 wt, H-Ras wt, H-RasG12V, Cdc42 wt, and Cdc42Q61L) and 3 single-plexes (for Rac1 wt, Rac1 Q61L and GST-GFP).
(§3) GTPase activators were identified on the basis of an increase in fluorescent GTP-binding.
(§4) In experiments including magnesium, six GST-GTPases were assayed simultaneously in a single multiplex (Rac1 wt, Rac1Q61L, RhoA wt, RhoAL63, Cdc42 wt and Cdc42Q61L) and 1 nM BODIPY-FL-GTP binding was measured in the presence or absence of the serial drug dilution series. Each dose response series was run in duplicate.

[4] = target: T2, Cdc42 WT (Homo sapiens, UniProt P60953); assay: as above; settings: Table 6, R3 analogs; for EC50: read-out: Cdc42 WT EC50; for Emax: read-out: Cdc42 WT Efficacy
T2 construct: purchased Cytoskeleton
T2 sequence (P60953 whole entry): as the sequence (P60766 whole entry) above
Procedure: as §1, §2, §3, §4

Sequence of Cdc42 (P60953 whole entry, species assumed): as the sequence (P60766 whole entry) above

Inhibition of Cdc42 GTPase in GLISA [2]	EC50 [3]	EC50 [4]	Emax [4]	Structure (SMILES)	Fluorescent-GTP binding to Cdc42 [1]
				Oc1ccc(-c2nc(-c3ccncc3)c(-c3ccc(F)cc3)[nH]2)cc1 [SB 202190]	did not inhibit
significant response	5.3 µM	5 µM	55%	Cc1cccc(C2CC(c3ccccc3)=NN2c2ccc(S(N)(=O)=O)cc2)c1 (stereo not drawn) [CID 44143700, 4-[3-(3-methylphenyl)-5-phenyl-3,4-dihydropyrazol-2-yl]benzene sulfonamide]	
significant response	5 µM	5 µM	66%	Cc1ccc(C2CC(c3ccccc3)=NN2c2ccc(S(N)(=O)=O)cc2)cc1 (stereo not drawn) [CID 13927310, 4-[3-(4-methylphenyl)-5-phenyl-3,4-dihydropyrazol-2-yl]benzene sulfonamide]	
